Test results: ChEMBL document CHEMBL5108031, “Novel N-(4-thiocyanatophenyl)-1H-1,2,3-triazole-4-carboxamides exhibit selective cytotoxic activity at nanomolar doses towards human leukemic T-cells” (Eur J Med Chem, 2022)
pIC50: −log10 of the molar value. Activity calls are given as the source filed them. The rule behind the calls is not given here.

Tests used:
[1] = system: HCT-116; assay: Antiproliferative activity against human HCT-116 cells incubated for 72 hrs and measured by MTT assay; format: functional
[2] = system: HCT-116; assay: Antiproliferative activity against p53-deficient human HCT-116 cells incubated for 72 hrs and measured by MTT assay; format: functional
[3] = system: WM793; assay: Antiproliferative activity against human WM793 cells incubated for 72 hrs and measured by MTT assay; format: functional
[4] = system: HeLa; assay: Antiproliferative activity against human HeLa cells incubated for 72 hrs and measured by MTT assay; format: functional
[5] = system: KB 3-1; assay: Antiproliferative activity against human KB 3-1 cells incubated for 72 hrs and measured by MTT assay; format: functional
[6] = system: A549; assay: Antiproliferative activity against human A549 cells incubated for 72 hrs and measured by MTT assay; format: functional
[7] = system: MCF7; assay: Antiproliferative activity against human MCF7 cells incubated for 72 hrs and measured by MTT assay; format: functional
[8] = system: MDA-MB-231; assay: Antiproliferative activity against human MDA-MB-231 cells incubated for 72 hrs and measured by MTT assay; format: functional
[9] = system: SK-OV-3; assay: Antiproliferative activity against human SK-OV-3 cells incubated for 72 hrs and measured by MTT assay; format: functional
[10] = system: THP-1; assay: Antiproliferative activity against human THP-1 cells incubated for 72 hrs and measured by MTT assay; format: functional
[11] = system: K562; assay: Antiproliferative activity against human K562 cells incubated for 72 hrs and measured by MTT assay; format: functional
[12] = system: Jurkat; assay: Antiproliferative activity against human Jurkat cells incubated for 72 hrs and measured by MTT assay; format: functional
[13] = system: HaCaT; assay: Antiproliferative activity against human HaCaT cells incubated for 72 hrs and measured by MTT assay; format: functional
[14] = system: HEK293; assay: Antiproliferative activity against human HEK293 cells incubated for 72 hrs and measured by MTT assay; format: functional
[15] = system: BALB/3T3; assay: Antiproliferative activity against mouse BALB/3T3 cells incubated for 72 hrs and measured by MTT assay; format: functional
[16] = molecular target: DNA topoisomerase 2-alpha (Homo sapiens, UniProt P11388); assay: Inhibition of DNA topoisomerase 2 alpha (unknown origin) measured by topoisomerase-mediated DNA relaxation assay
[17] = molecular target: Heat shock protein HSP 90-alpha (Homo sapiens, UniProt P07900); assay: Inhibition of Hsp90alpha (unknown origin)
[18] = system: HOP-92; assay: Antiproliferative activity against human HOP-92 cells; format: functional
[19] = system: SNB-75; assay: Antiproliferative activity against human SNB-75 cells; format: functional
[20] = system: Jurkat; assay: Induction of apoptosis in human Jurkat cells assessed as fragmented DNA and nuclei at 0.5 uM measured after 24 hrs by Hoechst 33342/propidium iodide staining based fluorescence microscopic analysis; format: functional, cell-based
[21] = system: Jurkat; assay: Induction of apoptosis in human Jurkat cells assessed as condensed chromatin at 0.5 uM measured after 24 hrs by Hoechst 33342/propidium iodide staining based fluorescence microscopic analysis; format: functional, cell-based
[22] = system: Jurkat; assay: Induction of apoptosis in human Jurkat cells assessed as cellular membrane blebbing at 0.5 uM measured after 24 hrs by Hoechst 33342/propidium iodide staining based fluorescence microscopic analysis; format: functional, cell-based
[23] = system: Jurkat; assay: Induction of apoptosis in human Jurkat cells assessed as appearance of apoptotic bodies at 0.5 uM measured after 24 hrs by Hoechst 33342/propidium iodide staining based fluorescence microscopic analysis; format: functional, cell-based
[24] = system: Jurkat; assay: Induction of apoptosis in human Jurkat cells assessed as cell debris at 0.5 uM measured after 24 hrs by Hoechst 33342/propidium iodide staining based fluorescence microscopic analysis; format: functional
[25] = system: Jurkat; assay: Induction of apoptosis in human Jurkat cells assessed as decrease in mitochondrial membrane potential at 0.5 uM measured after 24 hrs by Rhodamine 123 fluorescence based assay; format: functional, cell-based
[26] = system: Jurkat; assay: Induction of DNA damage in human Jurkat cells assessed as tail DNA at 0.5 uM measured after 24 hrs by comet assay; format: functional
[27] = system: Jurkat; assay: Induction of DNA damage in human Jurkat cells assessed as olive tail moment at 0.5 uM measured after 24 hrs by comet assay; format: functional
[28] = system: Jurkat; assay: Induction of DNA damage in human Jurkat cells assessed as DNA fragmentation at 0.5 uM measured by Diphenylamine assay; format: functional
[29] = species on record: Homo sapiens; assay: Inhibition of electrophoretic mobility of Plasmid DNA pEGFPc-1 (unknown origin) incubated for 6 hrs at 1 uM and measured by agarose gel electrophoresis method
[30] = system: DNA; assay: Binding affinity to DNA (unknown origin) assessed as DNA intercalation at 1 uM by measuring amount of methyl green dye replaced from DNA-methyl green complex; format: nucleic-acid assay; conditions: Homo sapiens
[31] = system: DNA; assay: Binding affinity to DNA (unknown origin) assessed as DNA intercalation at 10 uM by measuring amount of methyl green dye replaced from DNA-methyl green complex; format: nucleic-acid assay; conditions: Homo sapiens
[32] = system: DNA; assay: Binding affinity to DNA (unknown origin) assessed as DNA intercalation at 1 ug/ml by measuring amount of methyl green dye replaced from DNA-methyl green complex; format: nucleic-acid assay; conditions: Homo sapiens; dose 1.0 µg/ml
[33] = system: DNA; assay: Binding affinity to DNA (unknown origin) assessed as DNA intercalation at 10 ug/ml by measuring amount of methyl green dye replaced from DNA-methyl green complex; format: nucleic-acid assay; conditions: Homo sapiens; dose 10.0 µg/ml

DNA topoisomerase 2-alpha, sequence (P11388 whole entry): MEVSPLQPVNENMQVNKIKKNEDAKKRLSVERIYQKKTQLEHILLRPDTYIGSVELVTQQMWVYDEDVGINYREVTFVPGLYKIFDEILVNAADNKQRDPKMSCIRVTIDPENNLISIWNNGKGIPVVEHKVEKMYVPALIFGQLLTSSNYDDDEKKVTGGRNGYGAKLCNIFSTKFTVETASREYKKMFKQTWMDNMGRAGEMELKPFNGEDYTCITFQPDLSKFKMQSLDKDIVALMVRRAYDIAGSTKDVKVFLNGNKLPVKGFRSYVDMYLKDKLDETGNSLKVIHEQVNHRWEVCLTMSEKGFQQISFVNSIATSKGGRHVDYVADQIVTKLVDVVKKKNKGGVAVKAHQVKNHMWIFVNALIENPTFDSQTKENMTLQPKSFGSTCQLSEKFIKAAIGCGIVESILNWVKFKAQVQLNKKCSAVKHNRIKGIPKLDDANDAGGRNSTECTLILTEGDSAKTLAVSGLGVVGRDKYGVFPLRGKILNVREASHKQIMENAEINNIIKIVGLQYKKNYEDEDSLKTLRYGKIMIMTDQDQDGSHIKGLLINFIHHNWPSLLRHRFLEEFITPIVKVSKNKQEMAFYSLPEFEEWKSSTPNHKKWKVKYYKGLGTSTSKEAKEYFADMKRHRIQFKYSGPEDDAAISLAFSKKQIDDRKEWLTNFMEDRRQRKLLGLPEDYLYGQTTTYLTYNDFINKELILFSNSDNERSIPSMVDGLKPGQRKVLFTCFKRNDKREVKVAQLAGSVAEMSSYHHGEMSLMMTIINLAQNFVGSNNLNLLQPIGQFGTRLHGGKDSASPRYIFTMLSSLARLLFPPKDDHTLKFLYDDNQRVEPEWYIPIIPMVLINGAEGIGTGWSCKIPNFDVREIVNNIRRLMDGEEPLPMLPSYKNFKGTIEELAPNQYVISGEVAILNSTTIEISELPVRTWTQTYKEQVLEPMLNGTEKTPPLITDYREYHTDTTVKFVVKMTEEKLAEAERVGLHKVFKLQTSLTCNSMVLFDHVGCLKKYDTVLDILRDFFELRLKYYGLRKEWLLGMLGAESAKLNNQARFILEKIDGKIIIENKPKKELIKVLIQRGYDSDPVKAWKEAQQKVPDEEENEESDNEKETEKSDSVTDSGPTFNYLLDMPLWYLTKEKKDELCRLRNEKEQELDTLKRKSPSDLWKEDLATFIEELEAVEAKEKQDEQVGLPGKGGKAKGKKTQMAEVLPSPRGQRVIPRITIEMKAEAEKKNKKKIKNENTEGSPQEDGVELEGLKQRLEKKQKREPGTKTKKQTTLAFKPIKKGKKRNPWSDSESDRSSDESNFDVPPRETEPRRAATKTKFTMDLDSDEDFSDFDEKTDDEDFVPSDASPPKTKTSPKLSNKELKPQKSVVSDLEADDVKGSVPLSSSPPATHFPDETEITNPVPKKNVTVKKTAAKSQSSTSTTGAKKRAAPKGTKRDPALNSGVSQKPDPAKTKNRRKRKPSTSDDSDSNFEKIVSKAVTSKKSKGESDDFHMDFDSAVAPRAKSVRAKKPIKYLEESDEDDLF

Cc1ccc(-n2nnc(C(=O)Nc3ccc(SC#N)cc3)c2C)cc1C
GI50 [1]: > 100 µM
GI50 [2]: > 100 µM
GI50 [3]: 72.4 µM
GI50 [4]: > 100 µM
GI50 [5]: 61 µM
GI50 [6]: > 100 µM
GI50 [7]: 72 µM
GI50 [8]: > 100 µM
GI50 [9]: > 100 µM
GI50 [10]: > 100 µM
GI50 [11]: 9.2 µM
GI50 [12]: 0.68 µM
GI50 [13]: > 100 µM
GI50 [14]: > 100 µM
GI50 [15]: 9.8 µM

COc1cc([C@@H]2c3cc4c(cc3[C@@H](NC(=O)c3cn(-c5ccc(Cl)cc5)nn3)[C@H]3COC(=O)[C@H]23)OCO4)cc(OC)c1OC
pIC50 [16]: > 6.00

COCc1c(C(=O)Nc2ccc(SC#N)cc2)nnn1-c1ccc(C)cc1
GI50 [1]: 81.2 µM
GI50 [2]: 21.7 µM
GI50 [3]: 93.3 µM
GI50 [4]: > 100 µM
GI50 [5]: 53.6 µM
GI50 [6]: > 100 µM
GI50 [7]: > 100 µM
GI50 [8]: > 100 µM
GI50 [9]: 46.4 µM
GI50 [10]: > 100 µM
GI50 [11]: 42.5 µM
GI50 [12]: 4.46 µM
GI50 [13]: > 100 µM
GI50 [14]: > 100 µM
GI50 [15]: 75.7 µM

COc1cccc(-n2nnc(C(=O)Nc3ccc(SC#N)cc3)c2C)c1
GI50 [1]: > 100 µM
GI50 [2]: 39.8 µM
GI50 [3]: > 100 µM
GI50 [4]: > 100 µM
GI50 [5]: > 100 µM
GI50 [6]: > 100 µM
GI50 [7]: > 100 µM
GI50 [8]: > 100 µM
GI50 [9]: 64.6 µM
GI50 [10]: > 100 µM
GI50 [11]: 84.5 µM
GI50 [12]: > 100 µM
GI50 [13]: > 100 µM
GI50 [14]: > 100 µM
GI50 [15]: > 100 µM

CCNC(=O)c1nnn(-c2cc(C(C)C)c(O)cc2O)c1-c1ccc(CN2CCOCC2)cc1
pIC50 [17]: > 8.30

Cc1ccc(-n2nnc(C(=O)Nc3cc(Cl)ccc3Cl)c2N)cc1
GI50 [18]: 0.58 µM
TGI [18]: 5.9 µM
GI50 [19]: 0.58 µM
TGI [19]: 5.9 µM

Cc1ccc(Cl)c(-n2nnc(C(=O)Nc3ccc(SC#N)cc3)c2C)c1
GI50 [1]: > 100 µM
GI50 [2]: > 100 µM
GI50 [3]: > 100 µM
GI50 [4]: > 100 µM
GI50 [5]: 68 µM
GI50 [6]: > 100 µM
GI50 [7]: > 100 µM
GI50 [8]: > 100 µM
GI50 [9]: 9.6 µM
GI50 [10]: > 100 µM
GI50 [11]: 6.6 µM
GI50 [12]: 66.3 µM
GI50 [13]: > 100 µM
GI50 [14]: > 100 µM
GI50 [15]: 100 µM

COc1cccc2c1C(=O)c1c(O)c3c(c(O)c1C2=O)C[C@@](O)(C(=O)CO)C[C@@H]3O[C@H]1C[C@H](N)[C@H](O)[C@H](C)O1 [DOXORUBICIN]
GI50 [1]: 0.76 µM
GI50 [2]: 0.5 µM
GI50 [3]: 0.9 µM
GI50 [4]: 0.76 µM
GI50 [5]: 0.74 µM
GI50 [6]: 1.1 µM
GI50 [7]: 0.82 µM
GI50 [8]: 0.76 µM
GI50 [9]: 8.8 µM
GI50 [10]: 23.1 µM
GI50 [11]: 0.7 µM
GI50 [12]: 0.65 µM
GI50 [13]: 0.9 µM
GI50 [14]: 0.8 µM
GI50 [15]: 0.62 µM
Activity [20]: Active
Activity [21]: Active
Activity [22]: Active
Activity [23]: Active
Activity [24]: Active
Activity [25]: Active
Activity [26]: 20.3%
Activity [27]: 5.4
Activity [28]: 64%
inhibition [29]: Active
Activity [30]: 49.1%
Activity [31]: 54.2%

CCCc1c(C(=O)Nc2ccc(SC#N)cc2)nnn1-c1ccccc1
GI50 [1]: 42.3 µM
GI50 [2]: 39.6 µM
GI50 [3]: 65.7 µM
GI50 [4]: 48.8 µM
GI50 [5]: 7.8 µM
GI50 [6]: > 100 µM
GI50 [7]: 52 µM
GI50 [8]: > 100 µM
GI50 [9]: 73.7 µM
GI50 [10]: > 100 µM
GI50 [11]: 1.4 µM
GI50 [12]: 0.63 µM
GI50 [13]: > 100 µM
GI50 [14]: > 100 µM
GI50 [15]: 96.9 µM

CC[n+]1c(-c2ccccc2)c2cc(N)ccc2c2ccc(N)cc21
Activity [32]: 24.7%
Activity [33]: 46.6%

Cc1ccc(Cl)cc1-n1nnc(C(=O)Nc2ccc(SC#N)cc2)c1C
GI50 [1]: 39.6 µM
GI50 [2]: 8.2 µM
GI50 [3]: 72.8 µM
GI50 [4]: 91.3 µM
GI50 [5]: 7.8 µM
GI50 [6]: > 100 µM
GI50 [7]: 8.4 µM
GI50 [8]: 44.6 µM
GI50 [9]: 81.5 µM
GI50 [10]: > 100 µM
GI50 [11]: 5.7 µM
GI50 [12]: 0.68 µM
GI50 [13]: > 100 µM
GI50 [14]: 91.2 µM
GI50 [15]: 9.9 µM
